Patent US20060128724A1, “Pyrazole-substituted aminoheteroaryl compounds as protein kinase inhibitors” (AGOURON PHARMACEUTICALS, INC., priority 2004, published 2006)

Target: T1, c-MET (HGFR) (Homo sapiens, UniProt P08581)
T1 construct: purchased Upstate 14-526
Experiment: HGFR Continuous-Coupled Spectrophotometric Assay
Assay type: biochemical
Settings: Met-2 substrate peptide, 50 nM HGFR, 37° C.; read-out: c-Met Ki
Text: The following in vitro assay may be used to determine the level of activity and effect of the different compounds of the present invention on one or more of the PKs. Similar assays can be designed along the same lines for any PK using techniques well known in the art.
The general procedure is as follows: compounds and kinase assay reagents are introduced into test wells. The assay is initiated by addition of the kinase enzyme. Enzyme inhibitors reduce the measured activity of the enzyme.
In the continuous-coupled spectrophotometric assay the time-dependent production of ADP by the kinase is determined by analysis of the rate of consumption of NADH by measurement of the decrease in absorbance at 340 nm. As the PK produces ADP it is re-converted to ATP by reaction with phosphoenol pyruvate and pyruvate kinase. Pyruvate is also produced in this reaction. Pyruvate is subsequently converted to lactate by reaction with lactate dehydrogenase, which simultaneously converts NADH to NAD.
HGFR Continuous-Coupled Spectrophotometric Assay
This assay analyzes the tyrosine kinase activity of HGFR on the Met-2 substrate peptide, a peptide derived from the activation loop of the HGFR.
• 1. […] Dissolve up in 200 mM HEPES, pH 7.5 at 10 mM stock. • 3. 1 M PEP (phospho-enol-pyruvate) in 200 mM HEPES, pH 7.5 • 4. 100 mM NADH (B-Nicotinamide Adenine Dinucleotide, Reduced Form) in 200 mM HEPES, pH 7.5 • 5. 4 M MgCl2 (Magnesium Chloride) in ddH2O • 6. 1 M DTT (Dithiothreitol) in 200 mM HEPES, pH 7.5 • 7. 15 Units/mL LDH (Lactic Dehydrogenase) • 8. 15 Units/mL PK (Pyruvate Kinase) • 9. 5M NaCl dissolved in ddH2O • 10. Tween-20 (Protein Grade) 10% Solution • 11. 1 M HEPES buffer: (N-[2-Hydroxethyl]piperazine-N-[2-ethanesulfonic acid]) Sodium Salt. Dissolve in ddH2O, adjust pH to 7.5, bring volume to 1 L. Filter at 0.1 μm. • 12. […] 100% DMSO (SIGMA) • 14. […] Beckman DU-650 w/micro cell holders • 18. Beckman 4-position micro cell cuvette Procedure:
Prep Dilution Buffer (DB) for Enzyme (For 30 mL prep) • 1. DB final concentration is 2 mM DTT, 25 mM NaCl2, 5 mM MgCl2, 0.01% Tween-20, and 50 mM HEPES buffer, pH 7.5. • 2. Make up 50 mM HEPES by adding 1.5 mL 1 M HEPES into 28.1 mL of ddH2O. Add rest of the reagents. Into 50 mL conical vial, add 60 μL of 1M DTT, 150 μL 5M NaCl2, 150 μL 1M MgCl2, and 30 μL of 10% Tween-20 to give total volume of 30 mL. • 3. […] Aliquot out DB at 1 mL/tube and label tubes as “DB HGFR” • 5. Note: This can be prepared and stored ahead of time. • 6. Freeze un-used aliquots in microcentrifuge tubes at −20° C. freezer. […] For compound dilution plate, add 4 μL of 10 mM stock into column 1 of plate, and bring volume to 100 μL with 100% DMSO. • 2. Set up the Precision 2000 dilution method. A final concentration of 200 μM compound in 50% DMSO, 100 mM HEPES (1:2 serial dilution). Prep Coupled Enzymatic Buffer:
1. Final concentration in assay:
• 2. For a 10 mL reaction buffer add 10 μL of 1M PEP, 33 μL of 100 mM NADH, 50 μL of 4M MgCl2, 20 μL of 1M DTT, 6 μL of 500 mM ATP, and 500 μL of 10 mM Met-2 peptide into 100 mM HEPES buffer pH 7.5 and vortex/mix. • 3. Add coupling enzymes, LDH and PK, into reaction mix. Mix by gentle inversion. Running Samples
1. Spectrophotometer settings:
• 2. Add 85 μL of CE reaction mix into each well of assay plate. • 3. Add 5 μL of diluted compound into a well of the assay plate. • 4. Add 5 μL of 50% DMSO for negative control into last column of assay plate. • 5. Mix with multi-channel pipettor or orbital shaker. • 6. Pre-incubate for 10 minutes at 37° C. • 7. Add 10 μL of 500 nM HGFR to each well of assay plate; the final HGFR concentration is 50 nM in a total final volume of 100 μL. • 8. Measure activity for 10 minutes at λ=340 nm and 37° C.

T1 sequence (P08581 974-1390 limits assumed): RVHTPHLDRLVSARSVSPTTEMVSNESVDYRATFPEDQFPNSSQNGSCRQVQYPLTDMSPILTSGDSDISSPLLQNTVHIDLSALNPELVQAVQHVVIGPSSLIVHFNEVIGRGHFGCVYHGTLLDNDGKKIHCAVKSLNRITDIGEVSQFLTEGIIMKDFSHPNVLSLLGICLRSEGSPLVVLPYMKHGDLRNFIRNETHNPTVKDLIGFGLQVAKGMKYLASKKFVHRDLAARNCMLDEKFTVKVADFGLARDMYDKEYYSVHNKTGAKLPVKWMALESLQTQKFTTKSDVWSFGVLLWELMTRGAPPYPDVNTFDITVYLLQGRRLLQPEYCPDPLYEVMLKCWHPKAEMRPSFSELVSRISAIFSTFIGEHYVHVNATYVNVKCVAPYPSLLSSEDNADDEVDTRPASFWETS

| Ki [nM] | SMILES |
| --- | --- |
| 10 | CC(Oc1cc(-c2cnn(C3CCN(S(C)(=O)=O)CC3)c2)cnc1N)c1c(Cl)ccc(F)c1Cl (centres unmarked) [Example 50, 3-[1-(2,6-Dichloro-3-fluoro-phenyl)-ethoxy]-5-[1-(1-methanesulfonyl-piperidin-4-yl)-1H-pyrazol-4-yl]-pyridin-2-ylamine] |
| 396 | CCN(CC)C(=O)C(C)(C)n1cc(-c2cnc(N)c(OC(C)c3c(Cl)ccc(F)c3Cl)c2)cn1 (centres unmarked) [Example 55, 2-(4-{6-Amino-5-[1-(2,6-dichloro-3-fluoro-phenyl)-ethoxy]-pyridin-3-yl}-pyrazol-1-yl)-N,N-diethyl-isobutyramide] |
| 470 | CC(Oc1cc(-c2cnn(C(C)(C)C(=O)N3CC[C@H](O)C3)c2)cnc1N)c1c(Cl)ccc(F)c1Cl (stereo partly drawn) [Example 56, 2-(4-{6-Amino-5-[1-(2,6-dichloro-3-fluoro-phenyl)-ethoxy]-pyridin-3-yl}-pyrazol-1-yl)-1-((S)-3-hydroxy-pyrrolidin-1-yl)-2-methyl-propan-1-one] |
| 425 | CC(Oc1cc(-c2cnn(C(C)(C)C(=O)N3CCCC3)c2)cnc1N)c1c(Cl)ccc(F)c1Cl (centres unmarked) [Example 57, 2-(4-{6-Amino-5-[1-(2,6-dichloro-3-fluoro-phenyl)-ethoxy]-pyridin-3-yl}-pyrazol-1-yl)-2-methyl-1-pyrrolidin-1-yl-propan-1-one] |
| 125 | CC(Oc1cc(-c2cnn(C(C)(C)C(=O)N(C)C)c2)cnc1N)c1c(Cl)ccc(F)c1Cl (centres unmarked) [Example 58, 2-(4-{6-Amino-5-[1-(2,6-dichloro-3-fluoro-phenyl)-ethoxy]-pyridin-3-yl}-pyrazol-1-yl)-N,N-dimethyl-isobutyramide] |
| 14 | CC(Oc1cc(-c2cnn(C(C)(C)CO)c2)cnc1N)c1c(Cl)ccc(F)c1Cl (centres unmarked) [Example 59, 2-(4-{6-Amino-5-[1-(2,6-dichloro-3-fluoro-phenyl)-ethoxy]-pyridin-3-yl}-pyrazol-1-yl)-2-methyl-propan-1-ol] |
| 84 | CC(Oc1cc(-c2cnn(C(C)(C)CN(C)C)c2)cnc1N)c1c(Cl)ccc(F)c1Cl (centres unmarked) [Example 60, 3-[1-(2,6-Dichloro-3-fluoro-phenyl)-ethoxy]-5-[1-(2-dimethylamino-1,1-dimethyl-ethyl)-1H-pyrazol-4-yl]-pyridin-2-ylamine] |
| 70 | CC(Oc1cc(-c2cnn(C(C)(C)CN3CC[C@H](O)C3)c2)cnc1N)c1c(Cl)ccc(F)c1Cl (stereo partly drawn) [Example 61, (S)-1-[2-(4-{6-Amino-5-[1-(2,6-dichloro-3-fluoro-phenyl)-ethoxy]-pyridin-3-yl}-pyrazol-1-yl)-2-methyl-propyl]-pyrrolidin-3-ol] |
| 229 | CC(Oc1cc(-c2cnn(C(C)(C)COCCN3CCCC3)c2)cnc1N)c1c(Cl)ccc(F)c1Cl (centres unmarked) [Example 62, 3-[1-(2,6-Dichloro-3-fluoro-phenyl)-ethoxy]-5-{1-[1,1-dimethyl-2-(2-pyrrolidin-1-yl-ethoxy)-ethyl]-1H-pyrazol-4-yl}-pyridin-2-ylamine] |
| 72 | CC(Oc1cc(-c2cnn(C[C@H]3CCCN3)c2)cnc1N)c1c(Cl)ccc(F)c1Cl (stereo partly drawn) [Example 63, 3-[1-(2,6-Dichloro-3-fluoro-phenyl)-ethoxy]-5-(1-(R)-1-pyrrolidin-2-ylmethyl-1H-pyrazol-4-yl)-pyridin-2-ylamine] |
| 41.5 | CC(Oc1cc(-c2cnn(C[C@@H]3CCCN3)c2)cnc1N)c1c(Cl)ccc(F)c1Cl (stereo partly drawn) [Example 64, 3-[1-(2,6-Dichloro-3-fluoro-phenyl)-ethoxy]-5-(i-(S)-1-pyrrolidin-2-ylmethyl-1H-pyrazol-4-yl)-pyridin-2-ylamine] |
| 10 | C[C@@H](Oc1nc(-c2cnn(C3CCNCC3)c2)cnc1N)c1c(Cl)ccc(F)c1Cl [Example 66, 3-[(R)-1-(2,6-Dichloro-3-fluoro-phenyl)-ethoxy]-5-(1-piperidin-4-yl-1H-pyrazol-4-yl)-pyrazin-2-ylamine] |
| 65 | C[C@@H](Oc1nc(-c2cn[nH]c2)cnc1N)c1c(Cl)ccc(F)c1Cl [Example 67, 3-[(R)-1-(2,6-Dichloro-3-fluoro-phenyl)-ethoxy]-5-(1H-pyrazol-4-yl)-pyrazin-2-ylamine] |
| 15 | C[C@@H](Oc1nc(-c2cnn(C3CCN(C(=O)CO)CC3)c2)cnc1N)c1c(Cl)ccc(F)c1Cl [Example 68, 1-[4-(4-{5-Amino-6-[(R)-1-(2,6-dichloro-3-fluoro-phenyl)-ethoxy]-pyrazin-2-yl}-pyrazol-1-yl)-piperidin-1-yl]-2-hydroxy-ethanone] |
| 30 | C[C@@H](Oc1nc(-c2cnn(C3CCN(C)CC3)c2)cnc1N)c1c(Cl)ccc(F)c1Cl [Example 69, 3-[(R)-1-(2,6-Dichloro-3-fluoro-phenyl)-ethoxy]-5-[1-(1-methyl-piperidin-4-yl)-1H-pyrazol-4-yl]-pyrazin-2-ylamine] |
| 15 | C[C@@H](Oc1nc(-c2cnn(C3CCN(C(=O)CN(C)C)CC3)c2)cnc1N)c1c(Cl)ccc(F)c1Cl [Example 70, 1-[4-(4-{5-Amino-6-[(R)-1-(2,6-dichloro-3-fluoro-phenyl)-ethoxy]-pyrazin-2-yl}-pyrazol-1-yl)-piperidin-1-yl]-2-dimethylamino-ethanone] |
| 170 | CC(Oc1cc(-c2cnn(S(C)(=O)=O)c2)cnc1N)c1c(Cl)ccc(F)c1Cl (centres unmarked) [Example 71, 3-[1-(2,6-Dichloro-3-fluoro-phenyl)-ethoxy]-5-(1-methanesulfonyl-1H-pyrazol-4-yl)-pyridin-2-ylamine] |
| 90 | C[C@@H](Oc1cc(-c2cnn(C3CCNCC3)c2)cnc1N)c1c(F)ccc(F)c1Cl [Example 72, 3-[(R)-1-(2-Chloro-3,6-difluoro-phenyl)-ethoxy]-5-(1-piperidin-4-yl-1H-pyrazol-4-yl)-pyridin-2-ylamine] |
| 55 | CNCCn1cc(-c2cnc(N)c(OC(C)c3c(Cl)ccc(F)c3Cl)c2)cn1 (centres unmarked) [Example 73, 3-[1-(2,6-Dichloro-3-fluoro-phenyl)-ethoxy]-5-[1-(2-methylamino-ethyl)-1H-pyrazol-4-yl]-pyridin-2-ylamine] |
| 38 | CC(Oc1cc(-c2ccn(C3CCNCC3)n2)cnc1N)c1c(Cl)ccc(F)c1Cl (centres unmarked) [Example 75, 3-[1-(2,6-Dichloro-3-fluoro-phenyl)-ethoxy]-5-(1-piperidin-4-yl-1H-pyrazol-3-yl)-pyridin-2-ylamine] |
| 1920 | Cc1ccn(-c2cnc(N)c(OC(C)c3c(Cl)ccc(F)c3Cl)c2)n1 (centres unmarked) [Example 77, 3-[1-(2,6-Dichloro-3-fluoro-phenyl)-ethoxy]-5-(3-methyl-pyrazol-1-yl)-pyridin-2-ylamine] |
| 1560 | CC(Oc1cc(-n2ncc3ccccc32)cnc1N)c1c(Cl)ccc(F)c1Cl (centres unmarked) [Example 78, 3-[1-(2,6-Dichloro-3-fluoro-phenyl)-ethoxy]-5-indazol-1-yl-pyridin-2-ylamine] |

Same assay, conditions: test concentration not given

| c-Met % Inhibition [%] | SMILES |
| --- | --- |
| 21 | Nc1ncc(-c2cn[nH]c2)cc1OC1CCCCc2ccc(F)cc21 (centres unmarked) [Example 54, 3-(3-Fluoro-6,7,8,9-tetrahydro-5H-benzocyclohepten-5-yloxy)-5-(1H-pyrazol-4-yl)-pyridin-2-ylamine] |
